Assay [1] relates to HCT116. Kind of assay: efficacy (fitted maximal change in viability relative to DMSO control); higher = less cytotoxic (negative = loss of viability). The following applies: 48 h.
For assay [2], the system named is HCT116. Kind of assay: AC50 cell viability (CellTiter-Glo); higher = less potent. Particulars: 48 h. On the technique in general: ATP-based viability assays read luminescence as a measure of living cells.

Each structure is given as a SMILES string. Structures can show the parent of a compound that is named as a salt.
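For AC50 cell viability (CellTiter-Glo) in this document: HCT116 colorectal carcinoma cells screened at five concentrations per compound, luminescent viability scaled between DMSO wells and empty wells on each plate, curves fitted per compound.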
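For efficacy (fitted maximal change in viability relative to DMSO control) in this document: Luminescence-based viability readout, five doses per compound, normalized against on-plate DMSO and empty-well controls, followed by dose-response curve fitting for every drug.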

In the case of `Cc1nc2c([nH]1)-c1ccccc1N(C(=O)c1ccc(NC(=O)c3ccccc3-c3ccccc3)cc1)CC2` [Conivaptan hydrochloride], the efficacy in the assay on HCT116 [1] is -45.3%. Moreover, the AC50 cell viability with HCT116 [2] was 20.9 µM.

`COC1=C(OCCCN2CCOCC2)C=CC\3=C1/N=C(/NC(=O)C4=CN=C(N)N=C4)N5CC/N=C35` [Copanlisib]: the efficacy in the assay on HCT116 [1] was -57.4%. Further, the AC50 cell viability with HCT116 [2] turned out to be 0.0679 µM.

Consider `C=C1C(=O)OC2/C=C(/C)CC/C=C(/C)CCC12` (configuration not stated) [Costunolide], for which the efficacy in the assay on HCT116 [1] was -86.2%. In addition, in the assay on HCT116 [2], the AC50 cell viability stood at 20.9 µM.

For the molecule `C[C@H](NC(=O)CCC(F)(F)F)C(=O)N[C@@H]1C(=O)N(CCO)c2ncccc2-c2ccccc21` [Crenigacestat], in the assay on HCT116 [1], the efficacy was -44.7%. Moreover, the AC50 cell viability in the assay with HCT116 [2] was determined as 0.332 µM.

Regarding `CC1(COc2ccc3c(c2)ncn3-c2ccc3cccc(N4CCC(N)CC4)c3n2)COC1` [Crenolanib], the efficacy in the assay with HCT116 [1] is -104%. In the assay on HCT116 [2], this molecule gave an AC50 cell viability of 2.95 µM.

In the case of `C[C@@H](Oc1cc(-c2cnn(C3CCNCC3)c2)cnc1N)c1c(Cl)ccc(F)c1Cl` [Crizotinib], the efficacy in the assay with HCT116 [1] is -100%. The AC50 cell viability in the assay with HCT116 [2] is 4.17 µM.

Consider `CC(C)(O)/C=C\C(=O)[C@](C)(O)[C@H]1[C@H](O)C[C@]2(C)[C@@H]3CC=C4[C@@H](C=C(O)C(=O)C4(C)C)[C@]3(C)C(=O)C[C@@]12C` [Cucurbitacin I], for which the efficacy in the assay with HCT116 [1] is -77.1%. In the assay on HCT116 [2], this molecule returned an AC50 cell viability of 0.166 µM.

Consider `COc1cc(/C=C/C(=O)CC(=O)/C=C/c2ccc(O)c(OC)c2)ccc1O` [Curcumin], for which the efficacy in the assay on HCT116 [1] is -68%. The AC50 cell viability in the assay on HCT116 [2] came out at 4.17 µM.

For `C[C@H]1CCC/C=C/C2C[C@H](O)C[C@H]2[C@H](O)/C=C/C(=O)O1` (some centres not stated) [Cyanein], in the assay on HCT116 [1], the efficacy is -91.1%. In the assay on HCT116 [2], this molecule gave an AC50 cell viability of 0.235 µM.

Regarding `CN(C)CCC=C1C2=C(C=CC=C2)\C=C/C3=C1C=CC=C3` [Cyclobenzaprine hydrochloride], the efficacy in the assay on HCT116 [1] is -92.3%. The molecule also came in with an AC50 cell viability with HCT116 [2] of 18.6 µM.

As to `OC[C@H]1O[C@@H]2[C@@H](OC\3=N\C(=N)\C=C/[N@@]23)[C@@H]1O` [Cyclocytidine hydrochloride], the efficacy in the assay with HCT116 [1] was -59.3%. The molecule also came in with an AC50 cell viability in the assay with HCT116 [2] of 0.186 µM.

Consider `C[C@@H]1C[C@@H]([C@H](O)CC2CC(=O)NC(=O)C2)C(=O)[C@@H](C)C1` [Cycloheximide], for which the efficacy in the assay on HCT116 [1] was -68.6%. Besides, the AC50 cell viability in the assay with HCT116 [2] came out at 0.468 µM.

`CN1CCC(CC1)=C2C3=C(C=CC=C3)\C=C/C4=C2C=CC=C4` [Cyproheptadine hydrochloride]: the efficacy in the assay with HCT116 [1] is -81.9%. Further, the AC50 cell viability in the assay on HCT116 [2] was 23.5 µM.

`NC\1=N\C(=O)N(\C=C1)[C@@H]2O[C@H](CO)[C@@H](O)[C@@H]2O` [Cytarabine]: the efficacy in the assay on HCT116 [1] is -61.7%. The molecule also returned an AC50 cell viability with HCT116 [2] of 0.0742 µM.

In the case of `CCCCCCCCCCCCCC(=O)N[C@H](CO)[C@H](O)c1ccc([N+](=O)[O-])cc1` [D-NMAPPD], the efficacy in the assay with HCT116 [1] is -101%. In the assay with HCT116 [2], this molecule gave an AC50 cell viability of 26.3 µM.

As to `ClC/1=C(NCCN2CCOCC2)/C(=O)C3=C(C=CC=N3)C1=O` [DA-3003-1], the efficacy with HCT116 [1] was -90.7%. Besides, the AC50 cell viability in the assay with HCT116 [2] is 5.9 µM.

On to `Nc1cccc([S+](=O)([O-])N2CCCN([S+](=O)([O-])c3ccc4c(c3)OCCO4)CC2)c1` [DASA-58], for which, in the assay on HCT116 [1], the efficacy is -59.9%. The molecule also came in with an AC50 cell viability with HCT116 [2] of 14.8 µM.

Regarding `CNC(=O)c1cc(Oc2ccc(NC(=O)Nc3cc(C(C)(C)C)nn3-c3ccc4ncccc4c3)c(F)c2)ccn1` [DCC-2036], in the assay on HCT116 [1], the efficacy was -76%. The AC50 cell viability with HCT116 [2] is 11.8 µM.

Take `CCCCCN(CCC12CC3CC(CC(C3)C1)C2)C(=O)NCCCc1ccncc1` [DE-096]: the efficacy in the assay with HCT116 [1] was -90.2%. The same molecule yielded an AC50 cell viability in the assay with HCT116 [2] of 16.6 µM.

In the case of `COc1cc([C@@H]2c3cc4c(cc3[C@@H](O)C3COC(=O)C32)OCO4)cc(OC)c1O` (some centres not stated) [DMEP], the efficacy with HCT116 [1] is -52.3%. The AC50 cell viability in the assay on HCT116 [2] was 0.235 µM.

`CN(C)/N=N/c1nc[nH]c1C(N)=O` [Dacarbazine]: the efficacy with HCT116 [1] was -45.8%. The same molecule showed an AC50 cell viability in the assay on HCT116 [2] of 10.5 µM.

Consider `O=C(/C=C/c1ccc(CN(CCO)CCc2c[nH]c3ccccc23)cc1)NO` [Dacinostat], for which, in the assay on HCT116 [1], the efficacy is -89.1%. The AC50 cell viability in the assay on HCT116 [2] came to 0.0833 µM.

`COc1cc2ncnc(Nc3ccc(F)c(Cl)c3)c2cc1NC(=O)/C=C/CN1CCCCC1` [Dacomitinib]: in the assay with HCT116 [1], the efficacy was -99.1%. The AC50 cell viability in the assay with HCT116 [2] was determined as 8.33 µM.

Regarding `CO[C@@H](C(=O)N1Cc2[nH]nc(NC(=O)c3ccc(N4CCN(C)CC4)cc3)c2C1)c1ccccc1` [Danusertib], the efficacy in the assay on HCT116 [1] was -71.4%. The molecule also returned an AC50 cell viability with HCT116 [2] of 1.66 µM.

Regarding `O=C(/C=C/c1cccnc1)NCCCCC1CCN(C(=O)c2ccccc2)CC1` [Daporinad], the efficacy with HCT116 [1] was -94.1%. Besides, the AC50 cell viability with HCT116 [2] turned out to be 0.00525 µM.

With `CC(O)c1cc(C(=O)N[C@@H](C)Cn2ccc(-c3ccc(C#N)c(Cl)c3)n2)n[nH]1` (some centres not stated) [Darolutamide (ODM-201)], in the assay with HCT116 [1], the efficacy is -38.4%. Further, the AC50 cell viability with HCT116 [2] was 16.6 µM.

These data come from the supplement of paper PMC10290057.
